From PubChem BioAssay (NCI)
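Assay format: 96-well plates, 48-hour exposure. TGI: concentration producing complete growth inhibition.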

Columns and labels:
Assay in all cases: NCI tumour cell line growth inhibition, 48 h
786-0 renal = tested on: 786-0 renal
A498 renal = tested on: A498 renal
A549 NSCLC = tested on: A549 NSCLC
ACHN renal = tested on: ACHN renal
CAKI-1 renal = tested on: CAKI-1 renal
CCRF-CEM leukemia = tested on: CCRF-CEM leukemia
COLO 205 colon = tested on: COLO 205 colon
DLD-1 colon = tested on: DLD-1 colon
DMS 114 small cell lung = tested on: DMS 114 small cell lung
DMS 273 small cell lung = tested on: DMS 273 small cell lung
EKVX NSCLC = tested on: EKVX NSCLC
HCC-2998 colon = tested on: HCC-2998 colon
HCT-116 colon = tested on: HCT-116 colon
HCT-15 colon = tested on: HCT-15 colon
HL-60(TB) leukemia = tested on: HL-60(TB) leukemia
HOP-18 NSCLC = tested on: HOP-18 NSCLC
HOP-62 NSCLC = tested on: HOP-62 NSCLC
HOP-92 NSCLC = tested on: HOP-92 NSCLC
HT29 colon = tested on: HT29 colon
IGROV1 ovarian = tested on: IGROV1 ovarian
KM12 colon = tested on: KM12 colon
KM20L2 colon = tested on: KM20L2 colon
LOX IMVI melanoma = tested on: LOX IMVI melanoma
LXFL 529 NSCLC = tested on: LXFL 529 NSCLC
M14 melanoma = tested on: M14 melanoma
M19-MEL melanoma = tested on: M19-MEL melanoma
MALME-3M melanoma = tested on: MALME-3M melanoma
MOLT-4 leukemia = tested on: MOLT-4 leukemia
NCI-H226 lung = tested on: NCI-H226 lung
NCI-H460 lung = tested on: NCI-H460 lung
NCI-H522 lung = tested on: NCI-H522 lung
OVCAR-3 ovarian = tested on: OVCAR-3 ovarian
OVCAR-4 ovarian = tested on: OVCAR-4 ovarian
OVCAR-5 ovarian = tested on: OVCAR-5 ovarian
OVCAR-8 ovarian = tested on: OVCAR-8 ovarian
RPMI-8226 leukemia = tested on: RPMI-8226 leukemia
RXF 393 renal = tested on: RXF 393 renal
RXF-631 renal = tested on: RXF-631 renal
SF-268 CNS = tested on: SF-268 CNS
SF-295 CNS = tested on: SF-295 CNS
SF-539 CNS = tested on: SF-539 CNS
SK-MEL-28 melanoma = tested on: SK-MEL-28 melanoma
SK-MEL-5 melanoma = tested on: SK-MEL-5 melanoma
SK-OV-3 ovarian = tested on: SK-OV-3 ovarian
SN12C renal = tested on: SN12C renal
SNB-19 CNS = tested on: SNB-19 CNS
SNB-75 CNS = tested on: SNB-75 CNS
SNB-78 CNS = tested on: SNB-78 CNS
SR leukemia = tested on: SR leukemia
SW-620 colon = tested on: SW-620 colon
TK-10 renal = tested on: TK-10 renal
U251 CNS = tested on: U251 CNS
UACC-257 melanoma = tested on: UACC-257 melanoma
UACC-62 melanoma = tested on: UACC-62 melanoma
UO-31 renal = tested on: UO-31 renal

Measured: TGI

CC1=C2CC[C@@]3(C)C(=CCC3O)C2(C)CCC1=O (stereo not given in full)
> 100 µM: all assays above
